Assay results published in publication PMC8686763, “Pre-Steady-State Kinetics of the SARS-CoV-2 Main Protease as a Powerful Tool for Antiviral Drug Discovery” (Frontiers in Pharmacology, 2021).

Legend:
C145A M^pro [1] = biological target: T1, C145A M^pro (Severe acute respiratory syndrome coronavirus 2, UniProt P0DTD1, C3408A); type: binding, SARS-CoV-2
C145A M^pro [2] = biological target: T1, C145A M^pro; type: binding, SARS-CoV-2; remark: listed apart in the source

SMILES: COc1cccc2[nH]c(C(=O)N[C@@H](CC(C)C)C(=O)N[C@@H](C[C@@H]3CCNC3=O)C(=O)CO)cc12 [PF-00835231]
- K 1 (= k 1/k −1) (C145A M^pro [1]): 0.30 ± 0.02 M⁻¹
- K 2 (= k 2/k −2) (C145A M^pro [1]): 0.35 ± 0.09
- formation of the initial complex (k 1) faster for C145A M^pro than WT (C145A M^pro [1]): approximately 20 fold
- k 1 (C145A M^pro [1]): (6.6 ± 0.2)×10^6 M^−1×s^−1
- k 2 (C145A M^pro [1]): 1.0 ± 0.2 s⁻¹
- k -1 (C145A M^pro [1]): 22 ± 0.2 s⁻¹
- k -2 (C145A M^pro [1]): 2.8 ± 0.2 s⁻¹
- change in Tm (C145A M^pro [2]): ~2.2 °C
